Assay results as given in US10294228B2, “Breathing control modulating compounds, and methods of making and using same” (NEURAD LTD., priority 2015, dated 2019).
Counter-ions that a name gives are not always drawn.

Tested on: anesthetized rats
Assay: Anesthetized rat spirometry screening assay (ventilatory activity, minute volume)
Assay type: in vivo
Conditions: increase in minute volume (VE); for change in vivo at 0.3 mg/kg: 0.3 mg/kg IV bolus, read-out: VE % Inc @ 0.3 mg/kg IV; for change in vivo at 3 mg/kg: 3.0 mg/kg IV bolus, read-out: VE % Inc @ 3.0 mg/kg IV
Description: Anesthetized rats provide a quick method of screening compounds for respiratory and cardiovascular activity.
Rats were initially anesthetized with 3% isoflurane (inhaled) and femoral artery and vein cannulas were surgically inserted. Once cannulated, the rats were transitioned to urethane anesthesia (1.5 g/kg; i.v.) and a tracheal cut-down was performed. After placing the tracheal cannula, it was connected to a pneumotachometer to record respiratory airflow from which respiratory rate (RR), tidal volume (VT), and their product minute volume (MV, also termed VE) were derived. After the surgical preparation was complete, animals were allowed to stabilize for 30 minutes while respiratory rate, tidal volume, minute volume, blood pressure and heart rate were recorded continuously. Arterial blood gases (ABG) were obtained from arterial blood collected from the femoral artery. ABG measurements were taken before and 6 minutes after vehicle and each dose of compound administered. Compounds being screened were administered via bolus injections through the venous cannula followed by a saline flush (total time of administration is approximately 30 seconds), and the animal was monitored for at least 6 minutes for changes in cardiovascular efforts. Compounds were prepared in formulations identified to ensure optimal solubility. As such, vehicle controls were matched for the formulation of each compound tested. Dosing of the compounds being screened was conducted at 0.1 and/or 0.3 mg/kg and/or 3 mg/kg The next dose was not administered until all cardiovascular and respiratory measures had returned to baseline levels. The positive control compounds used were N-[4,6-di-(n-propylamino)-[1,3,5]triazin-2-yl]-N,O-dimethyl-hydroxylamine or N-[2,6-di-(n-propylamino)-[1,3]pyrimidin-4-yl]-N,O-dimethyl-hydroxylamine (both administered at the end of each screening experiment (0.3 mg/kg dose) to validate the experiment and also to serve as a measure with which the compound being screened could be compared.
Data were analyzed by collecting cardiovascular and respiratory data in 30 second averages (BINs). Data were plotted 2 minutes before challenge and then 6 minutes after challenge.

| SMILES | change in vivo at 0.3 mg/kg [%] | change in vivo at 3 mg/kg [%] |
| --- | --- | --- |
| CCCNc1nc(NC)nc2c(NC[C@H](C)O)nc(NC)nc12 [Compound 12a, (S)-1-(2,6-Bis-methylamino-8-propylamino-pyrimido[5,4-d]pyrimidin-4-ylamino)-propan-2-ol hydrochloride] | 114 |  |
| CNc1nc(NCC(C)(C)O)c2nc(NC)nc(NCC(F)F)c2n1 [Compound 36a, 1-[8-(2,2-Difluoro-ethylamino)-2,6-bis-methylamino-pyrimido[5,4-d]pyrimidin-4-ylamino]-2-methyl-propan-2-ol Hydrochloride] | 34 |  |
| CC[C@H](C)Nc1nc(NC)c2nc(NC[C@@H](C)O)nc(NC)c2n1 [Compound 104, (R)-1-[6-((S)-sec-Butylamino)-4,8-bis-methylamino-pyrimido[5,4-d]pyrimidin-2-ylamino]-propan-2-ol] | 33 | 98 |
| C=C(C)CNc1nc(NCC)c2nc(NC[C@H](C)O)nc(NCC)c2n1 [Compound 175, (S)-1-[4,8-Bis-ethylamino-6-(2-methyl-allylamino)-pyrimido[5,4-d]-pyrimidin-2-ylamino]-propan-2-ol] | 75 | 134 |
| CNc1nc(NCC(C)(C)O)nc2c(NC)nc(NCC(F)F)nc12 [Compound 107, 1-[6-(2,2-Difluoro-ethylamino)-4,8-bis-methylamino-pyrimido[5,4-d]pyrimidin-2-ylamino]-2-methyl-propan-2-ol] | 14 | 95 |
| CC[C@H](C)Nc1nc(NC)c2nc(NCC(C)(C)O)nc(NC)c2n1 [Compound 103, 1-[6-((S)-sec-Butylamino)-4,8-bis-methylamino-pyrimido[5,4-d]-pyrimidin-2-ylamino]-2-methyl-propan-2-ol] | 5 | 99 |
| CCNc1nc(NC[C@@H](C)O)nc2c(NCC)nc(N)nc12 [Compound 171, (R)-1-(6-Amino-4,8-bis-ethylamino-pyrimido[5,4-d]-pyrimidin-2-ylamino)-propan-2-ol] | 17 | 175 |
| CCNc1nc(NCC)c2nc(NC[C@@H](C)O)nc(NCC)c2n1 [Compound 186, (R)-1-(4,6,8-Tris-ethylamino-pyrimido[5,4-d]pyrimidin-2-ylamino)-propan-2-ol] | 37 | 90 |
| CNc1nc(NCC(C)(C)O)nc2c(NC)nc(NCc3ncccn3)nc12 [Compound 109, 1-{4,8-Bis-methylamino-6-[(pyrimidin-2-ylmethyl)-amino]-pyrimido[5,4-d]pyrimidin-2-ylamino}-2-methyl-propan-2-ol] | 21 | 10 |
| CCCNc1nc(NC)nc2c(N[C@H]3CCC[C@@H]3O)nc(NC)nc12 [Compound 86, (1S,2S)-2-(2,6-Bis-methylamino-8-propylamino-pyrimido[5,4-d]pyrimidin-4-ylamino)-cyclopentanol] | 26 | 92 |
| CC[C@@H](C)Nc1nc(NC)c2nc(NC[C@@H](C)O)nc(NC)c2n1 [Compound 100, (R)-1-[6-((R)-sec-Butylamino)-4,8-bis-methylamino-pyrimido[5,4-d]pyrimidin-2-ylamino]-propan-2-ol] | 33 | 139 |
| CNc1nc(NCC(C)(C)O)c2nc(NC)nc(NCC3CC3)c2n1 [Compound 46a, 1-[8-(Cyclopropylmethyl-amino)-2,6-bis-methylamino-pyrimido[5,4-d]pyrimidin-4-ylamino]-2-methyl-propan-2-ol Hydrochloride] | 79 | 203 |
| CCCNc1nc(NC)nc2c(NCC(O)CO)nc(NC)nc12 (centres unmarked) [Compound 75a, 3-(2,6-Bis-methylamino-8-propylamino-pyrimido[5,4-d]pyrimidin-4-ylamino)-propane-1,2-diol Hydrochloride] | 158 | 180 |
| CNc1nc(NC[C@@H](C)O)nc2c(NC)nc(NCC3CC3)nc12 [Compound 144, (R)-1-[6-(Cyclopropylmethyl-amino)-4,8-bis-methylamino-pyrimido[5,4-d]pyrimidin-2-ylamino]-propan-2-ol] | 14 | 98 |
| CC[C@@H](C)Nc1nc(NC)c2nc(NCC(C)(C)O)nc(NC)c2n1 [Compound 99, 1-[6-((R)-sec-Butylamino)-4,8-bis-methylamino-pyrimido[5,4-d]-pyrimidin-2-ylamino]-2-methyl-propan-2-ol] | 25 | 61 |
| CCCNc1nc(NC)c2nc(NC[C@H](C)O)nc(NC)c2n1 [Compound 113, (S)-1-(4,8-Bis-methylamino-6-propylamino-pyrimido[5,4-d]pyrimidin-2-ylamino)-propan-2-ol] | 111 | 190 |
| CNc1nc(NCC(F)(F)F)c2nc(NC)nc(NCCO)c2n1 [Compound 62a, 2-[2,6-Bis-methylamino-8-(2,2,2-trifluoro-ethylamino)-pyrimido[5,4-d]pyrimidin-4-ylamino]-ethanol Hydrochloride] | 40 |  |
| CCCNc1nc(NC)c2nc(N[C@H]3CCCC[C@H]3O)nc(NC)c2n1 [Compound 131, (1R,2S)-2-(4,8-Bis-methylamino-6-propylamino-pyrimido[5,4-d]pyrimidin-2-ylamino)-cyclohexanol] | 18 | 142 |
| CCCNc1nc(NC)c2nc(N(C)CC(C)(C)O)nc(NC)c2n1 [Compound 96, 1-[(4,8-Bis-methylamino-6-propylamino-pyrimido[5,4-d]pyrimidin-2-yl)-methyl-amino]-2-methyl-propan-2-ol] | 70 | 96 |
| CNc1nc(NCCOC)c2nc(NC)nc(NCCO)c2n1 [Compound 56a, 2-[8-(2-Methoxy-ethylamino)-2,6-bis-methylamino-pyrimido[5,4-d]pyrimidin-4-ylamino]-ethanol Hydrochloride] | 2 |  |
| CC[C@H](C)Nc1nc(NC)nc2c(NCC(C)(C)O)nc(NC)nc12 [Compound 42a, 1-[8-((S)-sec-Butylamino)-2,6-bis-methylamino-pyrimido[5,4-d]-pyrimidin-4-ylamino]-2-methyl-propan-2-ol Hydrochloride] | 76 | 149 |
| CNc1nc(NCC(C)(C)O)c2nc(NC)nc(NCc3ncccn3)c2n1 [Compound 38a, 1-{2,6-Bis-methylamino-8-[(pyrimidin-2-ylmethyl)-amino]-pyrimido[5,4-d]pyrimidin-4-ylamino}-2-methyl-propan-2-ol Hydrochloride] | 18 | 27 |
| CCCNc1nc(NC)c2nc(NCC(O)CO)nc(NC)c2n1 (centres unmarked) [Compound 121, 3-(4,8-Bis-methylamino-6-propylamino-pyrimido[5,4-d]pyrimidin-2-ylamino)-propane-1,2-diol] | 0 | 38 |
| CCCNc1nc(NC)nc2c(N[C@@H]3CCCC[C@H]3O)nc(NC)nc12 [Compound 85, (1R,2R)-2-(2,6-Bis-methylamino-8-propylamino-pyrimido[5,4-d]pyrimidin-4-ylamino)-cyclohexanol] | 69 | 83 |
| CCCNc1nc(NC)nc2c(NC(C)(C)CO)nc(NC)nc12 [Compound 16a, 2-(2,6-Bis-methylamino-8-propylamino-pyrimido[5,4-d]-pyrimidin-4-ylamino)-2-methyl-propan-1-ol hydrochloride] | 80 |  |
| CCCNc1nc(NC)nc2c(NCCO)nc(NC)nc12 [Compound 4a, 2-(2,6-Bis-methylamino-8-propylamino-pyrimido[5,4-d]pyrimidin-4-ylamino)-ethanol hydrochloride] | 90 |  |
| CCCNc1nc(NC)c2nc(N[C@@H]3CCC[C@H]3O)nc(NC)c2n1 [Compound 141, (1R,2R)-2-(4,8-Bis-methylamino-6-propylamino-pyrimido[5,4-d]pyrimidin-2-ylamino)-cyclopentanol] | 71 | 146 |
| CCCNc1nc(NC)nc2c(N[C@H](C)CO)nc(NC)nc12 [Compound 20a, (R)-2-(2,6-Bis-methylamino-8-propylamino-pyrimido[5,4-d]-pyrimidin-4-ylamino)-propan-1-ol Hydrochloride] | 107 |  |
| CCCNc1nc(NC)nc2c(N[C@H]3CCCC[C@@H]3O)nc(NC)nc12 [Compound 83, (1S,2S)-2-(2,6-Bis-methylamino-8-propylamino-pyrimido[5,4-d]pyrimidin-4-ylamino)-cyclohexanol] | 176 | 153 |
| CCCNc1nc(NC)nc2c(N[C@H]3CCCC[C@H]3O)nc(NC)nc12 [Compound 82, (1R,2S)-2-(2,6-Bis-methylamino-8-propylamino-pyrimido[5,4-d]pyrimidin-4-ylamino)-cyclohexanol] | 102 | 132 |
